Source: ChEMBL document CHEMBL5120901, “Batatasin III, a Constituent of Dendrobium scabrilingue, Improves Murine Pain-like Behaviors with a Favorable CNS Safety Profile” (J Nat Prod, 2022)
Activity calls are given as the source filed them. The rule behind the calls is not given here.

How the values were obtained:
[1] = tested on: Mus musculus; assay: Analgesic activity against formalin-induced inflammatory pain-like behaviour ICR mouse model assessed as inhibition of hind paw licking behaviour at 50 mg/kg, ip administered 60 mins prior to formalin challenge and measured after 10 to 40 mins by formalin test; format: functional; details: time 70-100 min
[2] = tested on: Mus musculus; assay: Analgesic activity against formalin-induced inflammatory pain-like behaviour ICR mouse model assessed as inhibition of hind paw licking behaviour at 12.5 to 50 mg/kg, ip administered 60 mins prior to formalin challenge and measured after 10 to 40 mins by formalin test; format: functional, organism-based; details: dose 12.5-50 mg/kg, time 70-100 min, DDE = dose-dependent effect
[3] = tested on: Mus musculus; assay: (§1) Anti-inflammatory activity against LPS-induced inflammatory pain-like behaviour ICR mouse model assessed as improvement in locomotor activity by measuring increased mobile behaviours at 50 mg/kg, ip treated with LPS for 2 hrs followed by drug administration for 1 hr and measured for 5 mins by LABORAS analysis; format: functional, organism-based; details: time 65.0 min
[4] = tested on: Mus musculus; assay: as §1, with “increase in animal's movement speed in LABORAS arena” for “increased mobile behaviours”; format: functional, organism-based; details: time 65.0 min
[5] = tested on: Mus musculus; assay: as §1, with “increase in distance travelled in LABORAS arena” for “increased mobile behaviours”; format: functional, organism-based; details: time 65.0 min
[6] = tested on: Mus musculus; assay: as §1, with “decrease in immobility behaviour” for “increased mobile behaviours”; format: functional, organism-based; details: time 65.0 min
[7] = tested on: Mus musculus; assay: Anti-inflammatory activity against LPS-induced inflammatory pain-like behaviour ICR mouse model assessed as reduction in TNF-alpha levels in plasma at 50 mg/kg, ip treated with LPS for 2 hrs followed by drug administration for 1 hr by ELISA; format: functional, organism-based
[8] = tested on: Mus musculus; assay: Anti-inflammatory activity against LPS-induced inflammatory pain-like behaviour ICR mouse model assessed as reduction in IL-6 levels in plasma at 50 mg/kg, ip treated with LPS for 2 hrs followed by drug administration for 1 hr by ELISA; format: functional, organism-based
[9] = tested on: RAW264.7; assay: Cytotoxicity against mouse RAW264.7 cells assessed as reduction in cell viability at 100 uM incubated for 24 hrs by MTT assay; format: toxicity, cell-based; details: raw264.7, 24 h
[10] = tested on: BV-2; assay: Cytotoxicity against […] cells assessed as reduction in cell viability at 100 uM incubated for 24 hrs by MTT assay; format: toxicity, cell-based; details: mouse, bv-2, 24 h
[11] = tested on: RAW264.7; assay: Anti-inflammartory activity in mouse RAW264.7 cells assessed as inhibition of LPS-induced NO production pretreated with compound for 1 hr followed by incubation with LPS for 12 hrs by Griess reagent based analysis; format: functional, cell-based; details: dose 12.5-50 µM, time 13.0 hrs, DDE = dose-dependent effect
[12] = tested on: RAW264.7; assay: Anti-inflammartory activity against LPS-activated mouse RAW264.7 cells assessed as reduction in TNF-alpha levels pretreated with compound for 1 hr followed by incubation with LPS for 12 hrs by ELISA; format: functional, cell-based; details: dose 12.5-50 µM, time 13.0 hrs, DDE = dose-dependent effect
[13] = CNS toxicity in naive ICR mouse assessed as motor coordination at 50 mg/kg, ip measured after 240 mins by rotarod test; format: organism-based; details: in vivo, 4 h
[14] = tested on: RAW264.7; assay: Anti-inflammartory activity against LPS-activated mouse RAW264.7 cells assessed as reduction in IL-6 levels pretreated with compound for 1 hr followed by incubation with LPS for 12 hrs by ELISA; format: functional, cell-based; details: dose 12.5-50 µM, time 13.0 hrs, DDE = dose-dependent effect
[15] = tested on: BV-2; assay: Anti-inflammatory activity in […] cells assessed as inhibition of LPS-induced NO production pretreated with compound for 1 hr followed by coincubation with LPS for 24 hrs by Griess reagent based analysis; format: functional, cell-based; details: Mus musculus, dose 12.5-50 µM, time 25.0 hrs, DDE = dose-dependent effect
[16] = tested on: BV-2; assay: Anti-inflammartory activity against LPS-activated […] cells assessed as reduction in TNF-alpha levels pretreated with compound for 1 hr followed by co-incubation with LPS for 24 hrs by ELISA; format: functional, cell-based; details: Mus musculus, dose 12.5-50 µM, time 25.0 hrs, DDE = dose-dependent effect
[17] = tested on: BV-2; assay: Anti-inflammartory activity against LPS-activated […] cells assessed as reduction in IL-6 levels pretreated with compound for 1 hr followed by co-incubation with LPS for 24 hrs by ELISA; format: functional, cell-based; details: Mus musculus, dose 12.5-50 µM, time 25.0 hrs, DDE = dose-dependent effect
[18] = CNS toxicity in naive ICR mouse assessed as spontaneous locomotor activity by measuring climbing behaviour at 50 mg/kg, ip and measured for 30 mins by LABORAS automated behavioral analysis; format: organism-based; details: in vivo, 0.5 h
[19] = CNS toxicity in naive ICR mouse assessed as spontaneous locomotor activity at 50 mg/kg, ip and measured for 30 mins by LABORAS automated behavioral analysis; format: organism-based; details: in vivo, 0.5 h
[20] = CNS toxicity in naive ICR mouse assessed as spontaneous locomotor activity by measuring immobility behaviour at 50 mg/kg, ip and measured for 30 mins by LABORAS automated behavioral analysis; format: organism-based; details: in vivo, 0.5 h
[21] = CNS toxicity in naive ICR mouse assessed as spontaneous locomotor activity by measuring rearing behaviour at 50 mg/kg, ip and measured for 30 mins by LABORAS automated behavioral analysis; format: organism-based; details: in vivo, 0.5 h
[22] = CNS toxicity in naive ICR mouse assessed as spontaneous locomotor activity by measuring animal's movement speed in arena at 50 mg/kg, ip and measured for 30 mins by LABORAS automated behavioral analysis; format: organism-based; details: in vivo, 0.5 h
[23] = CNS toxicity in naive ICR mouse assessed as spontaneous locomotor activity by measuring distance travelled in arena at 50 mg/kg, ip and measured for 30 mins by LABORAS automated behavioral analysis; format: organism-based; details: in vivo, 0.5 h
[24] = Toxicity in naive ICR mouse assessed as effect on food intake at 50 mg/kg, ip measured after 24 hrs; format: organism-based; details: in vivo
[25] = CNS toxicity in naive ICR mouse assessed as spontaneous locomotor activity by measuring climbing behaviour at 50 mg/kg, ip and measured for 2 hrs by LABORAS automated behavioral analysis; format: organism-based; details: in vivo
[26] = CNS toxicity in naive ICR mouse assessed as spontaneous locomotor activity at 50 mg/kg, ip and measured for 2 hrs by LABORAS automated behavioral analysis; format: organism-based; details: in vivo
[27] = CNS toxicity in naive ICR mouse assessed as spontaneous locomotor activity by measuring immobility behaviour at 50 mg/kg, ip and measured for 2 hrs by LABORAS automated behavioral analysis; format: organism-based; details: in vivo
[28] = CNS toxicity in naive ICR mouse assessed as spontaneous locomotor activity by measuring rearing behaviour at 50 mg/kg, ip and measured for 2 hrs by LABORAS automated behavioral analysis; format: organism-based; details: in vivo
[29] = CNS toxicity in naive ICR mouse assessed as spontaneous locomotor activity by measuring anaimal's movement speed in arena at 50 mg/kg, ip and measured for 2 hrs by LABORAS automated behavioral analysis; format: organism-based; details: in vivo
[30] = CNS toxicity in naive ICR mouse assessed as spontaneous locomotor activity by measuring distance travelled in arena at 50 mg/kg, ip and measured for 2 hrs by LABORAS automated behavioral analysis; format: organism-based; details: in vivo
[31] = Toxicity in naive ICR mouse assessed as effect on body weight at 50 mg/kg, ip measured after 24 hrs; format: organism-based; details: in vivo
[32] = Toxicity in naive ICR mouse assessed as effect on water intake at 50 mg/kg, ip measured after 24 hrs; format: organism-based; details: in vivo
[33] = tested on: RAW264.7; assay: Anti-inflammartory activity in mouse RAW264.7 cells assessed as inhibition of LPS-induced NO production at 50 uM pretreated with compound for 1 hr followed by incubation with LPS for 12 hrs by Griess reagent based analysis; format: functional, cell-based; details: time 13.0 hrs
[34] = tested on: RAW264.7; assay: Anti-inflammartory activity against LPS-activated mouse RAW264.7 cells assessed as reduction in TNF-alpha levels at 50 uM pretreated with compound for 1 hr followed by incubation with LPS for 12 hrs by ELISA; format: functional, cell-based; details: time 13.0 hrs
[35] = tested on: RAW264.7; assay: Anti-inflammartory activity against LPS-activated mouse RAW264.7 cells assessed as reduction in IL-6 levels at 50 uM pretreated with compound for 1 hr followed by incubation with LPS for 12 hrs by ELISA; format: functional, cell-based; details: time 13.0 hrs
[36] = tested on: Mus musculus; assay: Analgesic activity against formalin-induced inflammatory pain-like behaviour ICR mouse model assessed as inhibition of hind paw licking behaviour at 10 mg/kg, ip administered 60 mins prior to formalin challenge and measured after 10 to 40 mins by formalin test; format: functional; details: time 70-100 min
[37] = tested on: Mus musculus; assay: as §1, with “10” for “50”; format: functional, organism-based; details: time 65.0 min
[38] = tested on: Mus musculus; assay: as §1, with “increase in animal's movement speed in LABORAS arena” for “increased mobile behaviours”, “10” for “50”; format: functional, organism-based; details: time 65.0 min
[39] = tested on: Mus musculus; assay: as §1, with “increase in distance travelled in LABORAS arena” for “increased mobile behaviours”, “10” for “50”; format: functional, organism-based; details: time 65.0 min
[40] = tested on: Mus musculus; assay: as §1, with “decrease in immobility behaviour” for “increased mobile behaviours”, “10” for “50”; format: functional, organism-based; details: time 65.0 min
[41] = tested on: Mus musculus; assay: Anti-inflammatory activity against LPS-induced inflammatory pain-like behaviour ICR mouse model assessed as reduction in TNF-alpha levels in plasma at 10 mg/kg, ip treated with LPS for 2 hrs followed by drug administration for 1 hr by ELISA; format: functional, organism-based
[42] = tested on: Mus musculus; assay: Anti-inflammatory activity against LPS-induced inflammatory pain-like behaviour ICR mouse model assessed as reduction in IL-6 levels in plasma at 10 mg/kg, ip treated with LPS for 2 hrs followed by drug administration for 1 hr by ELISA; format: functional, organism-based

COc1cc(O)cc(CCc2cccc(O)c2)c1 [BATATASIN III]
inhibition in vivo at 50 mg/kg [1]: 69.9% | Activity [2]: Dde | Activity [3]: Active | Activity [4]: Active | Activity [5]: Active | Activity [6]: Active | Activity [7]: Active | Activity [8]: Active | Activity [9]: Toxic | Activity [10]: Toxic | Activity [11]: Dde | Activity [12]: Dde | Activity [13]: Non-Toxic | Activity [14]: Dde | Activity [15]: Dde | Activity [16]: Dde | Activity [17]: Dde | Activity [18]: Non-Toxic | Activity [19]: Non-Toxic | Activity [20]: Non-Toxic | Activity [21]: Non-Toxic | Activity [22]: Non-Toxic | Activity [23]: Non-Toxic | Activity [24]: Non-Toxic | Activity [25]: Non-Toxic | Activity [26]: Non-Toxic | Activity [27]: Non-Toxic | Activity [28]: Non-Toxic | Activity [29]: Non-Toxic | Activity [30]: Non-Toxic | Activity [31]: Non-Toxic | Activity [32]: Non-Toxic

C[C@@H]1C[C@H]2[C@@H]3CCC4=CC(=O)C=C[C@]4(C)[C@@]3(F)[C@@H](O)C[C@]2(C)[C@@]1(O)C(=O)CO
Activity [33]: Active | Activity [34]: Active | Activity [35]: Active

COc1ccc2c(c1)c(CC(=O)O)c(C)n2C(=O)c1ccc(Cl)cc1 [INDOMETHACIN]
inhibition in vivo at 10 mg/kg [36]: 71.6% | Activity [37]: Active | Activity [38]: Active | Activity [39]: Active | Activity [40]: Active | Activity [41]: Active | Activity [42]: Active
